IC50 data for 28 compounds are collected here from patent US20260078120A1, “SUBSTITUTED PYRIDOPYRIMIDINONES” (MIRATI THERAPEUTICS, INC., priority 2022, published 2026).

Assay [1] deals with T47D (PI3Kα H1047R mutant) cells. In words: CellTiter-Glo 2.0 luminescent cell viability assay, 72 hours, T47D cells. It counts as cell-based. The settings on record: Homo sapiens, T47D, 72 h. Put shortly:
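Cells seeded at 1000 per well overnight were dosed with a 10-concentration, 1:4 series starting at 10 µM and incubated ~72 h at 37° C. Viability was read by CellTiter-Glo 2.0 luminescence after 30 min at room temperature. IC50 came from four-parameter fits of percent vehicle control.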

Assay [2] concerns SKBR3 (PI3Kα wild type) cells. In words: CellTiter-Glo 2.0 luminescent cell viability assay, 72 hours, SKBR3 cells. It counts as cell-based. The settings on record: Homo sapiens, SK-BR-3, 72 h. Put shortly: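 Viability measured via CTG luminescence following roughly 72 hours of compound exposure at 37° C. Dosing used a 10 um starting concentration diluted 1:4 over 10 points; percent-of-vehicle data fitted with a variable-slope four-parameter model for IC50.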

[3] abbreviates: T47D (PI3Kα H1047R mutant) cells, CellTiter-Glo, approximately 72 hours, read-out: T47D (H1047R mutant) Viability IC50.
Setting [4] is: SKBR3 (PI3Kα wild type) cells, CellTiter-Glo, approximately 72 hours, read-out: SKBR3 (WT) Viability IC50.

Molecules are shown by their SMILES. Where two headings read alike, the source gives them in different places. Some results are limits rather than exact numbers.

On to `Cc1cc(C(C)Nc2ccccc2C(=O)O)c2nc(-c3cccc(C#N)c3)cc(=O)n2c1` (centres unmarked) [Example 11-398, 2-((1-(2-(3-cyanophenyl)-7-methyl-4-oxo-4H-pyrido[1,2-a]pyrimidin-9-yl)ethyl)amino)benzoic acid], for which the half-maximal inhibitory concentration (IC50) in assay [1] (setting [3]) and in assay [2] (setting [4]) was greater than 10000 nM in each case.

For `Cc1cc(C(C)Nc2ccccc2C(=O)O)c2nc(-c3ccccc3C#N)cc(=O)n2c1` (centres unmarked) [Example 11-399, 2-((1-(2-(2-cyanophenyl)-7-methyl-4-oxo-4H-pyrido[1,2-a]pyrimidin-9-yl)ethyl)amino)benzoic acid], the IC50 in assay [1] (setting [3]) and in assay [2] (setting [4]) was greater than 10000 nM in each case.

`Cc1cc(C(C)Nc2ccccc2C(=O)O)c2nc(-c3ccncc3)cc(=O)n2c1` (centres unmarked) [Example 11-400, 2-((1-(7-methyl-4-oxo-2-(pyridin-4-yl)-4H-pyrido[1,2-a]pyrimidin-9-yl)ethyl)amino)benzoic acid]: the values for the IC50 in assay [1] (setting [3]) and in assay [2] (setting [4]) were 1050 nM and greater than 10000 nM, respectively.

Turning to `Cc1cc(C(C)Nc2ccccc2C(=O)O)c2nc(-c3cccnc3)cc(=O)n2c1` (centres unmarked) [Example 11-401, 2-((1-(7-methyl-4-oxo-2-(pyridin-3-yl)-4H-pyrido[1,2-a]pyrimidin-9-yl)ethyl)amino)benzoic acid], the 50% inhibitory concentration (IC50) is 3270 nM in assay [1] (setting [3]) and greater than 10000 nM in assay [2] (setting [4]).

Take `Cc1cc(C(C)Nc2ccccc2C(=O)O)c2nc(-c3ccccn3)cc(=O)n2c1` (centres unmarked) [Example 11-402, 2-((1-(7-methyl-4-oxo-2-(pyridin-2-yl)-4H-pyrido[1,2-a]pyrimidin-9-yl)ethyl)amino)benzoic acid]: the IC50 in assay [1] (setting [3]) is 6860 nM; in assay [2] (setting [4]), greater than 10000 nM.

On to `Cc1cc(C(C)Nc2ccccc2C(=O)O)c2nc(-c3ccccc3)c(C)c(=O)n2c1` (centres unmarked) [Example 11-403, 2-((1-(3,7-dimethyl-4-oxo-2-phenyl-4H-pyrido[1,2-a]pyrimidin-9-yl)ethyl)amino)benzoic acid], for which the half-inhibitory concentration (IC50) was 1060 nM in assay [1] (setting [3]) and greater than 10000 nM in assay [2] (setting [4]).

As to `Cc1cc(C(C)Nc2ccccc2C(=O)O)c2nc(-c3ccn(C)n3)cc(=O)n2c1` (centres unmarked) [Example 11-404, 2-((1-(7-methyl-2-(1-methyl-1H-pyrazol-3-yl)-4-oxo-4H-pyrido[1,2-a]pyrimidin-9-yl)ethyl)amino)benzoic acid], the IC50 in assay [1] (setting [3]) and in assay [2] (setting [4]) was greater than 10000 nM in each case.

Take `Cc1cc(C(C)Nc2ccccc2C(=O)O)c2nc(-c3cnn(C)c3)cc(=O)n2c1` (centres unmarked) [Example 11-405, 2-((1-(7-methyl-2-(1-methyl-1H-pyrazol-4-yl)-4-oxo-4H-pyrido[1,2-a]pyrimidin-9-yl)ethyl)amino)benzoic acid]: the half-inhibitory concentration (IC50) in assay [1] (setting [3]) is 8380 nM; in assay [2] (setting [4]), greater than 10000 nM.

Take `Cc1cc([C@H](C)Nc2ccccc2C(=O)O)c2nc(N3Cc4ccccc4C3)cc(=O)n2c1` [Example 11-406, (S)-2-((1-(2-(isoindolin-2-yl)-7-methyl-4-oxo-4H-pyrido[1,2-a]pyrimidin-9-yl)ethyl)amino)benzoic acid]: the IC50 in assay [1] (setting [3]) is 864 nM; in assay [2] (setting [4]), greater than 10000 nM.

Consider `Cc1cc(C(C)Nc2ccccc2C(=O)O)c2nc(N3CCC3)cc(=O)n2c1` (centres unmarked) [Example 11-407, 2-((1-(2-(azetidin-1-yl)-7-methyl-4-oxo-4H-pyrido[1,2-a]pyrimidin-9-yl)ethyl)amino)benzoic acid], for which the IC50 in assay [1] (setting [3]) and in assay [2] (setting [4]) was greater than 10000 nM each time.

Take `Cc1cc(C(C)Nc2ccccc2C(=O)O)c2nc(N(C)C)cc(=O)n2c1` (centres unmarked) [Example 11-408, 2-((1-(2-(dimethylamino)-7-methyl-4-oxo-4H-pyrido[1,2-a]pyrimidin-9-yl)ethyl)amino)benzoic acid]: the IC50 in assay [1] (setting [3]) and in assay [2] (setting [4]) was greater than 10000 nM in each case.

Regarding `Cc1cc(C#N)c2nc(N3CCCCC3)cc(=O)n2c1` [Example 11-409, 7-methyl-4-oxo-2-(piperidin-1-yl)-4H-pyrido[1,2-a]pyrimidine-9-carbonitrile], the IC50 in assay [1] (setting [3]) and in assay [2] (setting [4]) was greater than 10000 nM in each case.

Consider `CCC(O)c1cc(C)cn2c(=O)cc(N3CCCCC3)nc12` (centres unmarked) [Example 11-410, 9-(1-hydroxypropyl)-7-methyl-2-(piperidin-1-yl)-4H-pyrido[1,2-a]pyrimidin-4-one], for which the 50% inhibitory concentration (IC50) in assay [1] (setting [3]) and in assay [2] (setting [4]) was greater than 10000 nM throughout.

Turning to `CCC(Nc1ccccc1C(=O)O)c1cc(C)cn2c(=O)cc(N3CCCCC3)nc12` (centres unmarked) [Example 11-411, 2-((1-(7-methyl-4-oxo-2-(piperidin-1-yl)-4H-pyrido[1,2-a]pyrimidin-9-yl)propyl)amino)benzoic acid], the concentration for half-maximal inhibition (IC50) in assay [1] (setting [3]) and in assay [2] (setting [4]) was greater than 10000 nM each time.

In the case of `Cc1cc(CNc2ccccc2C(=O)O)c2nc(N3CCCCC3)cc(=O)n2c1` [Example 11-412], the 50% inhibitory concentration (IC50) in assay [1] (setting [3]) and in assay [2] (setting [4]) was greater than 10000 nM each time.

For `Cc1cc(C(C)Nc2ccccc2C(=O)O)c2nc(N3CCCCC3)c(C3CC3)c(=O)n2c1` (centres unmarked) [Example 11-413, 2-((1-(3-cyclopropyl-7-methyl-4-oxo-2-(piperidin-1-yl)-4H-pyrido[1,2-a]pyrimidin-9-yl)ethyl)amino)benzoic acid], the 50% inhibitory concentration (IC50) in assay [1] (setting [3]) is 1650 nM; in assay [2] (setting [4]), greater than 10000 nM.

For the compound `Cc1cc([C@H](C)Nc2ccccc2C(=O)O)c2nc(N3CCCCC3)c(C(F)(F)F)c(=O)n2c1` [Example 11-414, (S)-2-((1-(7-methyl-4-oxo-2-(piperidin-1-yl)-3-(trifluoromethyl)-4H-pyrido[1,2-a]pyrimidin-9-yl)ethyl)amino)benzoic acid], the results for the concentration for half-maximal inhibition (IC50) in assay [1] (setting [3]) and in assay [2] (setting [4]) were 1820 nM and greater than 10000 nM, respectively.

Turning to `Cc1cc(C(C)Nc2ccccc2C(=O)O)c2nc(N3CCCCC3)c(C(F)(F)F)c(=O)n2c1` (centres unmarked) [Example 11-415, 2-((1-(7-methyl-4-oxo-2-(piperidin-1-yl)-3-(trifluoromethyl)-4H-pyrido[1,2-a]pyrimidin-9-yl)ethyl)amino)benzoic acid], the half-inhibitory concentration (IC50) came out at 532 nM in assay [1] (setting [3]) and 890 nM in assay [2] (setting [4]).

As to `CC(Nc1ccccc1C(=O)O)c1cc(C(F)(F)F)cn2c(=O)cc(N3CCCCC3)nc12` (centres unmarked) [Example 11-416, 2-((1-(4-oxo-2-(piperidin-1-yl)-7-(trifluoromethyl)-4H-pyrido[1,2-a]pyrimidin-9-yl)ethyl)amino)benzoic acid], the 50% inhibitory concentration (IC50) in assay [1] (setting [3]) is 9090 nM; in assay [2] (setting [4]) it was greater than 10000 nM.

Turning to `C[C@@H](Nc1ccccc1C(=O)O)c1cc(C#N)cn2c(=O)cc(N3CCC(F)(F)CC3)nc12` [Example 11-418, (R)-2-((1-(7-cyano-2-(4,4-difluoropiperidin-1-yl)-4-oxo-4H-pyrido[1,2-a]pyrimidin-9-yl)ethyl)amino)benzoic acid], the IC50 in assay [1] (setting [3]) and in assay [2] (setting [4]) was greater than 10000 nM throughout.

`CC(Nc1ccccc1C(=O)O)c1cc(C#N)cn2c(=O)cc(N3CCC(F)(F)CC3)nc12` (centres unmarked) [Example 11-419, 2-((1-(7-cyano-2-(4,4-difluoropiperidin-1-yl)-4-oxo-4H-pyrido[1,2-a]pyrimidin-9-yl)ethyl)amino)benzoic acid]: the 50% inhibitory concentration (IC50) in assay [1] (setting [3]) and in assay [2] (setting [4]) was greater than 10000 nM each time.

Take `Cc1cc(C(C)Nc2ccccc2C(=O)O)c2nc(N3CCOCC3)cc(=O)n2c1` (centres unmarked) [Example 11-420, 2-((1-(7-methyl-2-morpholino-4-oxo-4H-pyrido[1,2-a]pyrimidin-9-yl)ethyl)amino)benzoic acid]: the IC50 in assay [1] (read-out: T47D (H1047R mutant) Viability IC50 (nM)) was 1310 nM; in assay [2] (read-out: SKBR3 (WT) Viability IC50 (nM)), greater than 10000 nM.

With `Cc1cc(C(C)Nc2ccccc2)c2nc(N3CCOCC3)cc(=O)n2c1` (centres unmarked) [Example 11-421, 7-methyl-2-morpholino-9-(1-(phenylamino)ethyl)-4H-pyrido[1,2-a]pyrimidin-4-one], the IC50 in assay [1] (setting [3]) and in assay [2] (setting [4]) was greater than 10000 nM each time.

Regarding `C[C@H](Nc1ccccc1C(=O)O)c1cccn2c(=O)cc(N3CCCCC3)nc12` [Example 11-423, (S)-2-((1-(4-oxo-2-(piperidin-1-yl)-4H-pyrido[1,2-a]pyrimidin-9-yl)ethyl)amino)benzoic acid], the half-maximal inhibitory concentration (IC50) in assay [1] (setting [3]) and in assay [2] (setting [4]) was greater than 10000 nM each time.

For the compound `Cc1cc([C@@H](C)Nc2ccccc2C(=O)O)c2nc(N3CCn4ccnc4C3)c(C)c(=O)n2c1` [Example 11-429, (R)-2-((1-(2-(5,6-dihydroimidazo[1,2-a]pyrazin-7(8H)-yl)-3,7-dimethyl-4-oxo-4H-pyrido[1,2-a]pyrimidin-9-yl)ethyl)amino)benzoic acid], the IC50 in assay [1] (setting [3]) is 3140 nM; in assay [2] (setting [4]), greater than 10000 nM.

Turning to `Cc1cc([C@@H](C)Nc2ccccc2C(=O)O)c2nc(N3CCn4cncc4C3)c(C)c(=O)n2c1` [Example 11-430, (R)-2-((1-(2-(5,6-dihydroimidazo[1,5-a]pyrazin-7(8H)-yl)-3,7-dimethyl-4-oxo-4H-pyrido[1,2-a]pyrimidin-9-yl)ethyl)amino)benzoic acid], the concentration for half-maximal inhibition (IC50) in assay [1] (setting [3]) is 4670 nM; in assay [2] (setting [4]), greater than 10000 nM.

In the case of `Cc1cc([C@@H](C)Nc2ccccc2C(=O)O)c2nc(N3CCn4nccc4C3)c(C)c(=O)n2c1` [Example 11-431, (R)-2-((1-(2-(6,7-dihydropyrazolo[1,5-a]pyrazin-5(4H)-yl)-3,7-dimethyl-4-oxo-4H-pyrido[1,2-a]pyrimidin-9-yl)ethyl)amino)benzoic acid], the concentration for half-maximal inhibition (IC50) was 403 nM in assay [1] (setting [3]) and greater than 10000 nM in assay [2] (setting [4]).

Take `Cc1cc([C@@H](C)Nc2ccccc2C(=O)O)c2nc(N3CCC(n4cccn4)CC3)c(C)c(=O)n2c1` [Example 11-432, (R)-2-((1-(2-(4-(1H-pyrazol-1-yl)piperidin-1-yl)-3,7-dimethyl-4-oxo-4H-pyrido[1,2-a]pyrimidin-9-yl)ethyl)amino)benzoic acid]: the 50% inhibitory concentration (IC50) in assay [1] (setting [3]) is 122 nM; in assay [2] (setting [4]) it was greater than 10000 nM.
